From patent US20250188060A1, “ALPHA1A-ADRENERGIC RECEPTOR AGONISTS AND METHODS OF USE” (CuraSen Therapeutics, Inc., priority 2022, published 2025)
Counter-ions that a name gives are not always drawn. Like-named read-outs stand apart in the source and are kept apart here.

How the values were obtained:
α1A-ARs = target: T1, α1A-ARs (Homo sapiens, UniProt P35348); test: Calcium flux assay (Calcium 6 dye) in cells expressing an α1-AR; format: cell-based; details: α1A-AR calcium flux, mean of at least three experiments; for EC50: read-out: Average pEC50 (converted); for Emax: relative to full agonist epinephrine, read-out: Average Emax (% epi)
T1 sequence (P35348 1-466): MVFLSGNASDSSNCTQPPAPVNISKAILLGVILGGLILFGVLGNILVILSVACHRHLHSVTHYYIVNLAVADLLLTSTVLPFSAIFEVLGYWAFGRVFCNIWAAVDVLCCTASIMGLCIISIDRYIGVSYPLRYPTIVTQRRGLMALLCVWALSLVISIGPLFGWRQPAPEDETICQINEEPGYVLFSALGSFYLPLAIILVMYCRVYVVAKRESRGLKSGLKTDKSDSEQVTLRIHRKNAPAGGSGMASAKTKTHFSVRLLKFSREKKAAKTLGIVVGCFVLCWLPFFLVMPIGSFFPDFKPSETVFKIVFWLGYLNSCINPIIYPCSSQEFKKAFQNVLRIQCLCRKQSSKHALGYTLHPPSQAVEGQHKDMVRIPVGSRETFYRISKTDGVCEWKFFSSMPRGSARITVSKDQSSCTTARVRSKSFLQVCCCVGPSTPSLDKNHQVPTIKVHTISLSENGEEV
Source text: Calcium flux experimental design: alpha-1 adrenergic receptors (α1-ARs) couple to Gq proteins, which results in downstream activation of phospholipase C and release of calcium from intracellular stores. Intracellular calcium increase upon α1-AR activation can be detected by Calcium 6 dye.
Cell preparation: cells expressing an α1-AR were washed in warmed phosphate-buffered saline to remove medium and harvested using versene (Caisson Labs, catalog #EDL01).
Media was removed from cells by tapping plates upside-down on absorbent wipes, followed by 15 second upside-down 50×g centrifugation, again on absorbent wipes. 12 μL cell dye solution was added to cells using a reagent dispenser (Integra viaFILL) and cells were incubated for 90 minutes at 37° C., 5% CO2.
Compound preparation: candidate alpha-adrenergic compounds, dissolved to 10 mM in DMSO, were diluted in assay buffer (HBSS/HEPES containing 2 mM CaCl2) and 2 mM probenecid sodium salt). […] On all assay plates, vehicle (DMSO) and positive control (10 μM epinephrine) conditions were included on the plate, as well as a dose-response curve of epinephrine. […] 384 well compound plates were centrifuged briefly at 250×g, sealed (Axygen PCR-SP) and incubated at 37° C. until the 90 minute cell dye incubation was complete.
Calcium 6 stained cells and 384 well compound plates were loaded onto the Flexstation and incubated on the machine for 5 minutes before initiating the assay.
For each assay well, baseline Calcium 6 fluorescence was detected for 18 seconds prior to 12 μL compound addition at 12 μL per second. Changes in Calcium 6 fluorescence were detected for a further 22 seconds, for a total read time of 40 seconds. All detection was performed with medium gain sensitivity, bottom read, with 6 flashes per read.
Data analysis: for calcium flux, analysis of maximum change from baseline over the 40-second read time was determined using Softmax Pro and data was exported as raw text files. Potency estimates (EC50) were derived from dose response curves (maximum change from baseline versus the log concentration of test compound) fit by four-parameter nonlinear regression using Graphpad Prism. Efficacy was determined by comparing the magnitude of the test compound signal window (fitted curve max−min) with the signal window of the full agonist control, epinephrine. […] All experiments were repeated a minimum of three times, with the average (mean) potency and maximum effect relative to the within-plate full agonist dose-response comparator reported.

α1A-adrenergic receptor [1] = target: T2, α1A-adrenergic receptor (Homo sapiens, UniProt P35348); details: as compared to noradrenaline; InsPs accumulation assay; Blue et al., Table 1; cited from earlier work
T2 sequence (P35348 1-466): T1 sequence (P35348 1-466)

α1A-adrenergic receptor [2] = target: T2, α1A-adrenergic receptor; details: as compared to noradrenaline; FLIPR assay; Blue et al., Table 1; cited from earlier work

Row | Compound | EC50 (α1A-ARs) | Emax (α1A-ARs) | intrinsic activity (α1A-adrenergic receptor [1]) | intrinsic activity (α1A-adrenergic receptor [2])
1 | CC(F)(F)c1cc(Cl)cc2c(Cl)nn(CC3=NCCN3)c12 [Compound 72] | 10 to 977 nM | > 61% | – | –
2 | Cc1cc(C(F)(F)F)cc2c(Cl)nn(CC3=NCCN3)c12 [Compound 73] | 10 to 977 nM | > 61% | – | –
3 | CC(F)(F)c1cccc2c(N3CCCC3)nn(CC3=NCCN3)c12 [Compound 74] | > 1000 nM | 21 to 60% | – | –
4 | CC(F)(F)c1cc(F)cc2c(Cl)nn(CC3=NCCN3)c12 [Compound 75] | 10 to 977 nM | 21 to 60% | – | –
5 | Cc1cc(F)cc2c(N3CCCC3)nn(CC3=NCCN3)c12 [Compound 77] | 10 to 977 nM | 21 to 60% | – | –
6 | Cc1c(OCC2=NCCN2)ccc(Cl)c1NS(C)(=O)=O [RO 115-1240 (dabuzalgron) HCl salt, dabuzalgron] | – | – | 0.27 | 0.51
7 | Cc1c(OCC2=NCCN2)ccc(Cl)c1NS(C)(=O)=O [RO 115-1240 (dabuzalgron) free base, dabuzalgron] | – | – | 0.31 | –
